These results are taken from patent US20240308996A1, “PYRIDOPYRIDINES AND DERIVATIVES THEREOF AS SELECTIVE KINASE INHIBITORS” (University of Sharjah, priority 2023, published 2024).

One assay deals with Flt3 (Homo sapiens, UniProt P36888). Briefly: Kinase IC50, Flt3.
A further assay concerns the target PDGFRα (Homo sapiens, UniProt P16234). Briefly: Kinase IC50, PDGFRα.
A further assay concerns the target FMS (Homo sapiens, UniProt P07333). Put plainly: Kinase IC50, FMS.
The test system of a further assay is UO-31. Put plainly: NCI-60 cell line panel: UO-31. The class given is cell-based. On the set-up: TGI: unit not given here. Particulars: Renal Cancer; for IC50: Homo sapiens; for TGI: total growth inhibition. On the procedure: (§1) It was carried out at the NCI, Bethesda, MD, USA, utilizing their standard protocol.
For another assay, the system named is T-47D. Put plainly: NCI-60 cell line panel: T-47D. In kind it is cell-based. Particulars: Breast Cancer; for TGI: total growth inhibition; for IC50: Homo sapiens, T47D. On the procedure:
as §1

For a further assay, the target named is Flt4 (Homo sapiens, UniProt P35916). Put plainly: Kinase IC50, Flt4.
Chain of Flt4 (P35916 25-1363): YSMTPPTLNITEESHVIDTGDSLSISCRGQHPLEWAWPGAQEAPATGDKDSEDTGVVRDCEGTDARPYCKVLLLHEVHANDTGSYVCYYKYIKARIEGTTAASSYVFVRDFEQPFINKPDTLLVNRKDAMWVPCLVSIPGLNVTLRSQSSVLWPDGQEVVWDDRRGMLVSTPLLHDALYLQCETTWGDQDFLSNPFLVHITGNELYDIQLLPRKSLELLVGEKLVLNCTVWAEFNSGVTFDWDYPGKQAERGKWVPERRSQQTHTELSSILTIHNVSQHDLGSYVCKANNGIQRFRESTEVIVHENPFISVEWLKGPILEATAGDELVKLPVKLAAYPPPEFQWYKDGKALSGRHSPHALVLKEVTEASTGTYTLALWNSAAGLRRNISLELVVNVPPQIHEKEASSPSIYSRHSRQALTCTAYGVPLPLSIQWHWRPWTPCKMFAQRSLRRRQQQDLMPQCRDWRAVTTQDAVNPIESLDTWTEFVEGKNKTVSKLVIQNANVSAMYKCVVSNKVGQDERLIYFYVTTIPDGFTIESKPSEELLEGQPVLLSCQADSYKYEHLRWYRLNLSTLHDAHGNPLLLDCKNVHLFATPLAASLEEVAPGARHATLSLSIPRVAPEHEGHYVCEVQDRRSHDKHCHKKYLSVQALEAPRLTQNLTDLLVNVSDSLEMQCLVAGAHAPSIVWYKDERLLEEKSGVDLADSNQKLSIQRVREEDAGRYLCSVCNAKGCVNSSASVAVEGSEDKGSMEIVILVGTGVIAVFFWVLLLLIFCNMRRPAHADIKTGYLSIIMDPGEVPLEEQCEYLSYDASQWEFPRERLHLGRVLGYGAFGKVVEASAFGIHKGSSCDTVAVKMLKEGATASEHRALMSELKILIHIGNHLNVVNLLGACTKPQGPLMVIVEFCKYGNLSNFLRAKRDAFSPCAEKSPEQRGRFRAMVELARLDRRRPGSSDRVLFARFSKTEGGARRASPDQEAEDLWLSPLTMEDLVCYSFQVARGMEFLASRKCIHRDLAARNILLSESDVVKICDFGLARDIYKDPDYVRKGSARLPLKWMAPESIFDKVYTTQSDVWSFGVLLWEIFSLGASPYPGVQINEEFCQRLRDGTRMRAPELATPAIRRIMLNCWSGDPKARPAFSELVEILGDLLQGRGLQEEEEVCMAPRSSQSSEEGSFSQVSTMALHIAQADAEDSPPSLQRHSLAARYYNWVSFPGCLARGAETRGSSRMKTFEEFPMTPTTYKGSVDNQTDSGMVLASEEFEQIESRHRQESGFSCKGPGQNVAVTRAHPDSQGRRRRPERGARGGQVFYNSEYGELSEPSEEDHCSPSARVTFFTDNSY
The next assay addresses TrkA (Homo sapiens, UniProt P04629). Briefly: Kinase IC50, TrkA.

Chain of FMS (P07333 20-972): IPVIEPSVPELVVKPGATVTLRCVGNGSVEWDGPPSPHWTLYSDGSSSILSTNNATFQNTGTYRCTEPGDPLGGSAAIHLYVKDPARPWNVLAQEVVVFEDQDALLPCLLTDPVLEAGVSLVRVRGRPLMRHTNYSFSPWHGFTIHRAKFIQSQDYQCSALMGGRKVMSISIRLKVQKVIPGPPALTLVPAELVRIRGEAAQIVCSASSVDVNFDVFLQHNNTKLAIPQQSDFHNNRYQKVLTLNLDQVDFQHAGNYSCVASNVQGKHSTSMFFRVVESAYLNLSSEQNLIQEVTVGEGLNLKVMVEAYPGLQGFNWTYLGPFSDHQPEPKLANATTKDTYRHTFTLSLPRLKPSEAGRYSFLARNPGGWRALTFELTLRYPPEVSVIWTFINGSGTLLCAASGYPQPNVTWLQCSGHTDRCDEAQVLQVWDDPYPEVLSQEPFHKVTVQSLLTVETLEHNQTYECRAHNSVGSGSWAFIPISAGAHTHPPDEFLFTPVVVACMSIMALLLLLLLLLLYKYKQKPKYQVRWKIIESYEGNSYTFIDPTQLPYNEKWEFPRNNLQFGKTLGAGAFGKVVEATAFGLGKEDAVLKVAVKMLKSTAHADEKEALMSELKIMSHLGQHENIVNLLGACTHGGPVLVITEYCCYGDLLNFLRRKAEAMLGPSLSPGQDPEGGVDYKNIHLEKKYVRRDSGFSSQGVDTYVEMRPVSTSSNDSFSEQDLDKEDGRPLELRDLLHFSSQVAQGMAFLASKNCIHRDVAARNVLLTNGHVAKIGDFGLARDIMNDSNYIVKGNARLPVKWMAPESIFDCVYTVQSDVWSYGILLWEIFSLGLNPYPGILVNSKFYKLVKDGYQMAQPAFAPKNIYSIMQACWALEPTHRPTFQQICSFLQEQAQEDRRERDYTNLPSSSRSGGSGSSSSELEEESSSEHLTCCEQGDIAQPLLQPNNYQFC
Chain of PDGFRα (P16234 24-1089): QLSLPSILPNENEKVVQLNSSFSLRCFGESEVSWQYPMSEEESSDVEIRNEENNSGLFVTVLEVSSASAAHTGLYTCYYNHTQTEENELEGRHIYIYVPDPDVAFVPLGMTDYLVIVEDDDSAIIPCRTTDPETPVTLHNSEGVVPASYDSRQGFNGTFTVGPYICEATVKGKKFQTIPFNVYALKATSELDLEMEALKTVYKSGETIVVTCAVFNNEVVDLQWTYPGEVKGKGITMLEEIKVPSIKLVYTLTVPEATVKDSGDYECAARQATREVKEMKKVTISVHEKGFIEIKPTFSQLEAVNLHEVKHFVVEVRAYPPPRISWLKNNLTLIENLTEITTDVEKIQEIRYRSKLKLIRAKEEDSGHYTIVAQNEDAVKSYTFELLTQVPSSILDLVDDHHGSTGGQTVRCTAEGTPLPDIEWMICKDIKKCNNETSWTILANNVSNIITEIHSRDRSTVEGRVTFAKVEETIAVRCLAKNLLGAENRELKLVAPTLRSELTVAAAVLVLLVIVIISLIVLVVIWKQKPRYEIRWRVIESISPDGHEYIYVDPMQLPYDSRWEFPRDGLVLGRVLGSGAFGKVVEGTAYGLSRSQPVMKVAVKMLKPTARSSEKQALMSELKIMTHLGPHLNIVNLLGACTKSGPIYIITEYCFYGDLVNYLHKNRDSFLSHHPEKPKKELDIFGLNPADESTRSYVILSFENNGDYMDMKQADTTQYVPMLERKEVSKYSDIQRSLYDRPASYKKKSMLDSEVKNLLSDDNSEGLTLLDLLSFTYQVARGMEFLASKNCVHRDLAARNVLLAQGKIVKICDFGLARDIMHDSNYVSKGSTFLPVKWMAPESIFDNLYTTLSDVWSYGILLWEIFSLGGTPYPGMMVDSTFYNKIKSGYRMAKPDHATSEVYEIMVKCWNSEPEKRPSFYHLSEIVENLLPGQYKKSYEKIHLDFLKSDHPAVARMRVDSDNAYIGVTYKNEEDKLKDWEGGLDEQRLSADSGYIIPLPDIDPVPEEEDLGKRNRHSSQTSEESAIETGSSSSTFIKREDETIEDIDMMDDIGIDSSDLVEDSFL
Chain of Flt3 (P36888 27-993): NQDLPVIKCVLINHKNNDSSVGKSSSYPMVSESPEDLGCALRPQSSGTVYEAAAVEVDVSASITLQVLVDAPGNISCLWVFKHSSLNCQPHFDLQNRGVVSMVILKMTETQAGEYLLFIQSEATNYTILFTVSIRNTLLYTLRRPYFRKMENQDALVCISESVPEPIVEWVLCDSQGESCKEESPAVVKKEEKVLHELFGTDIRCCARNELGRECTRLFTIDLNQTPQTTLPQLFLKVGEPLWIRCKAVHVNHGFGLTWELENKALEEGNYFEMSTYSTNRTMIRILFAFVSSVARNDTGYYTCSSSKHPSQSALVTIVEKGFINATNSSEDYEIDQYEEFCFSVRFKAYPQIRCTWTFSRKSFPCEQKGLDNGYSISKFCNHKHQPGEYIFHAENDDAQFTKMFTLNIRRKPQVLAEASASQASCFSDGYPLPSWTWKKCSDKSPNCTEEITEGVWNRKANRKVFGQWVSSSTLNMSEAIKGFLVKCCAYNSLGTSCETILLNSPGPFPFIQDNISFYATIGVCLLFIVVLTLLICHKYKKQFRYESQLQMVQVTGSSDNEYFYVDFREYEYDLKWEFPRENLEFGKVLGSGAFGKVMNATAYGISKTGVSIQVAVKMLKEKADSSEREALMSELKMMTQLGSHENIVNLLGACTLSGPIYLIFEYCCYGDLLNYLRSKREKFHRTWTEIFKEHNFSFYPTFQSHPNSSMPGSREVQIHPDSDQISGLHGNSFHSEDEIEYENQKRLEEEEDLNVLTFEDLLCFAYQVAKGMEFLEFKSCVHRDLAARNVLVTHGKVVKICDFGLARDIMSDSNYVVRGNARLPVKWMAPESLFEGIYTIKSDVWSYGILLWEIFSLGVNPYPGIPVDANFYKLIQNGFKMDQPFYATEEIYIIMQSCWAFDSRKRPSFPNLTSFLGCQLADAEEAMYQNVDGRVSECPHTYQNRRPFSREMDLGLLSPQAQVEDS
Chain of TrkA (P04629 33-796): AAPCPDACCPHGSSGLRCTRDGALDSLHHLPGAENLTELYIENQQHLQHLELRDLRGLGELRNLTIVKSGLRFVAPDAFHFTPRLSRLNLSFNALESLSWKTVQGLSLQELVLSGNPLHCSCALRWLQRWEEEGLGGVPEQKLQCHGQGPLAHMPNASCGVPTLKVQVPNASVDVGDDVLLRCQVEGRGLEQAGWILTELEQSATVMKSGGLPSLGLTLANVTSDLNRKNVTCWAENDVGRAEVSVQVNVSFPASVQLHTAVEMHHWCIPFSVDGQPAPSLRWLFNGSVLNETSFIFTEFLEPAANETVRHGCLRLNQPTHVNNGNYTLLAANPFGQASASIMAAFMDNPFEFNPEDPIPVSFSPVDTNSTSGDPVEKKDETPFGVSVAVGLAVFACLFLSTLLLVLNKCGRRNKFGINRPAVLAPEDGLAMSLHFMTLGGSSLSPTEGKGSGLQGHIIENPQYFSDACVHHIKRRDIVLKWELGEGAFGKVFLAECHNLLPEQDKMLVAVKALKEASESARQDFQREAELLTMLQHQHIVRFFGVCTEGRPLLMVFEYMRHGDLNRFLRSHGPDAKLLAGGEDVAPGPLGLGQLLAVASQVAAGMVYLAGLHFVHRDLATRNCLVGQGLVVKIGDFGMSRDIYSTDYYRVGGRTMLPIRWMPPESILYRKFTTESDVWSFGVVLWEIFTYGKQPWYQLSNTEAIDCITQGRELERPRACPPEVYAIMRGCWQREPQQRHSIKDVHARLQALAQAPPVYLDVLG

For orientation: IC50 means the concentration needed to halve the response being measured. On to `CNC(=O)c1cc(-c2ccc(NC(=O)Nc3ccc(N4CCN(C)CC4)c(C(F)(F)F)c3)cc2)nc2cccnc12` [Compound 13b, N-Methyl-2-(4-(3-(4-(4-methylpiperazin-1-yl)-3-(trifluoromethyl)phenyl)ureido)phenyl)-1,5-naphthyridine-4-carboxamide], for which the IC50 amounted to 0.362 ± 0.0004 µM against Flt3; 0.9724 ± 0.0013 µM against PDGFRα; 0.0215 ± 0.0002 µM on FMS; 15.3 µM with UO-31; 17 µM in the assay on T-47D; 0.3663 ± 0.0005 µM at Flt4. On FMS, the “potency against FMS kinase compared with sorafenib” value is recorded as “more potent than the known drug sorafenib”. Also, on FMS (against the most sensitive kinases), the “potency and selectivity against FMS kinase (IC50 values)” value was “high potency and selectivity against FMS kinase”. The values for the TGI in the assay on UO-31 and in the assay on T-47D were 29.2 and 43.4 µM, respectively.
On to `CCN1CCN(c2ccc(NC(=O)Nc3ccc(-c4cc(C(=O)NC)c5ncccc5n4)cc3)cc2C(F)(F)F)CC1` [Compound 13c, 2-(4-(3-(4-(4-Ethylpiperazin-1-yl)-3-(trifluoromethyl)phenyl)ureido)phenyl)-N-methyl-1,5-naphthyridine-4-carboxamide], for which the IC50 against TrkA is 0.958 µM; against Flt3 it was 0.4836 ± 0.0007 µM; on PDGFRα, 0.9923 ± 0.0006 µM; at FMS it was 0.0739 ± 0.0002 µM; in the assay on UO-31, 2.71 µM; in the assay with T-47D it was 3.72 µM. On Flt4, this compound displayed a concentration for half-maximal inhibition (IC50) of 0.9451 ± 0.0005 µM. In addition, the “potency against FMS kinase compared with sorafenib” value on FMS was “more potent than the known drug sorafenib”. The TGI in the assay on UO-31 was 5.14; in the assay on T-47D it was above 18 µM.
For the compound `CC(C)NC(=O)c1cc(-c2ccc(NC(=O)Nc3ccc(N4CCN(C)CC4)c(C(F)(F)F)c3)cc2)nc2cccnc12` [Compound 13e, N-Isopropyl-2-(4-(3-(4-(4-methylpiperazin-1-yl)-3-(trifluoromethyl)phenyl)ureido)phenyl)-1,5-naphthyridine-4-carboxamide], in the assay with UO-31, the midpoint of inhibition, the IC50, lay at 0.59 µM and the TGI is 1.11. In the assay on T-47D, this compound showed a TGI of 24.7 µM and an IC50 of 7.62 µM.
Regarding `CCN1CCN(c2ccc(NC(=O)Nc3ccc(-c4cc(C(=O)NC(C)C)c5ncccc5n4)cc3)cc2C(F)(F)F)CC1` [Compound 13f, 2-(4-(3-(4-(4-Ethylpiperazin-1-yl)-3-(trifluoromethyl)phenyl)ureido)phenyl)-N-isopropyl-1,5-naphthyridine-4-carboxamide], in the assay with UO-31, the IC50 came to 2.18 µM and the TGI is recorded as 6.81. Also, in the assay with T-47D, the TGI turned out to be 8.74 µM and the IC50 was determined as 1.93 µM.
